Test results: patent US10004233B2, “Relating to treatment of water” (BWA WATER ADDITIVES UK LIMITED, priority 2015, dated 2018)

Columns and labels:
[1] = test system: Desulfovibrio vulgaris; assay: Log10 reduction of viable anaerobic bacteria in high-TDS phosphate buffer suspension (API RP 38 media vials); type: cell-based; settings: TDS 30,000 mg l^−1, 5 = complete kill
Description: (§1) Aqueous systems inoculated with anaerobe and facultative anaerobe culture and having a total dissolved solids (TDS) concentration of 30,000 mg l^−1 were prepared and treated with treatment agents comprising: (a) a phosphonium compound and (b) an oxazolidine compound. The phosphonium compound (a) used was tri n-butyl n-tetradecyl phosphonium chloride (TTPC). The oxazolidine compound (b) was 4,4-dimethyloxazolidine (DMO).
(§2) A suspension of Desulfovibrio vulgaris plus Enterobacter aerogenes bacteria containing from 1×10^5 to 1×10^6 cells/mL was prepared in sterile pH 8 phosphate buffer containing sodium chloride to give the desired total dissolved solids (TDS) concentration. Aliquots of this suspension were dosed with the indicated concentrations of the compounds (a) and (b) with the concentrations being measured as ppm active. The mixtures were allowed to stand at room temperature. At the designated contact times, each mixture was sampled to determine the total number of viable cells of both Desulfovibrio vulgaris and Enterobacter aerogenes by serial 10-fold dilution into API RP 38 media vials and anaerobic acid producing media vials, respectively. The vials were incubated at 37° C. for 72 hours. Results were recorded as log10 reduction in the viable count versus the control.
(§3) The efficacy of the treatment agents was evaluated by measuring the Log10 Reduction of the anaerobic bacterium Desulfovibrio vulgaris and the facultative anaerobic bacterium Enterobacter aerogenes after contact times of 1 hour, 4 hours and 24 hours as detailed in Table 1. For TTPC the stated ppm value relates to the amount of TTPC added (active). For the 4,4-dimethyloxazolidine the stated ppm relates to the amount of 4,4-dimethyloxazolidine added (active).

[2] = test system: Enterobacter aerogenes; assay: Log10 reduction of viable facultative anaerobic bacteria in high-TDS phosphate buffer suspension (anaerobic acid producing media vials); type: cell-based; settings: TDS 30,000 mg l^−1, 8 = complete kill
Description: as §1, §2, §3

[3] = DMO 40 ppm active, contact time 1 hour
[4] = DMO 40 ppm active, contact time 4 hours
[5] = DMO 40 ppm active, contact time 24 hours
[6] = DMO 80 ppm active, contact time 1 hour
[7] = DMO 80 ppm active, contact time 4 hours
[8] = DMO 80 ppm active, contact time 24 hours
[9] = TTPC 3.125 ppm active, contact time 1 hour
[10] = TTPC 3.125 ppm active, contact time 4 hours
[11] = TTPC 3.125 ppm active, contact time 24 hours
[12] = TTPC 6.25 ppm active, contact time 1 hour
[13] = TTPC 6.25 ppm active, contact time 4 hours
[14] = TTPC 6.25 ppm active, contact time 24 hours

## CC1(C)COCN1 [DMO, 4,4-dimethyloxazolidine]
[1]; [3]
  Log10 Reduction Anaerobes: 1
[1]; [4]
  Log10 Reduction Anaerobes: 1
[1]; [5]
  Log10 Reduction Anaerobes: 1
[1]; [6]
  Log10 Reduction Anaerobes: 1
[1]; [7]
  Log10 Reduction Anaerobes: 2
[1]; [8]
  Log10 Reduction Anaerobes: 2
[2]; [3]
  Log10 Reduction Facultative Anaerobes: 0
[2]; [4]
  Log10 Reduction Facultative Anaerobes: 0
[2]; [5]
  Log10 Reduction Facultative Anaerobes: 0
[2]; [6]
  Log10 Reduction Facultative Anaerobes: 0
[2]; [7]
  Log10 Reduction Facultative Anaerobes: 0
[2]; [8]
  Log10 Reduction Facultative Anaerobes: 0

## CCCCCCCCCCCCCC[P+](CCCC)(CCCC)CCCC.[Cl-] [TTPC, tri n-butyl n-tetradecyl phosphonium chloride]
[1]; [9]
  Log10 Reduction Anaerobes: 1
[1]; [10]
  Log10 Reduction Anaerobes: 5
[1]; [11]
  Log10 Reduction Anaerobes: 5
[1]; [12]
  Log10 Reduction Anaerobes: 2
[1]; [13]
  Log10 Reduction Anaerobes: 5
[1]; [14]
  Log10 Reduction Anaerobes: 5
[2]; [9]
  Log10 Reduction Facultative Anaerobes: 1
[2]; [10]
  Log10 Reduction Facultative Anaerobes: 2
[2]; [11]
  Log10 Reduction Facultative Anaerobes: 4
[2]; [12]
  Log10 Reduction Facultative Anaerobes: 3
[2]; [13]
  Log10 Reduction Facultative Anaerobes: 4
[2]; [14]
  Log10 Reduction Facultative Anaerobes: 5
